Measurements from patent US20080261866A1, “Compositions Comprising Glycosaminoglycan and Nonsteroidal Anti-Inflammatory Drug” (PANACEA BIOTEC LTD., priority 2005, published 2008).

Tests used:
[1] = tested on: diclofenac-induced gastric ulcers; experiment: Diclofenac-induced acute gastric ulcers in rats; settings: Single oral administration of diclofenac free acid 100 mg/kg, fasted animals
Method: Wistar rats of either sex were fasted overnight and weighing 170-200 g at the time of testing were used throughout. […] A dosing volume of 10 ml/kg was used for each sequential solution or suspension. All doses were coded and the test was performed under a code not known to the observer.
The ulcers were induced as described by Chan et al. (1995). In brief, overnight fasted animals were weighed and randomly divided into four groups. […] The number of ulcers was identified using 10× magnifying lens, counted, multiplied by respective score, and summed up for each animal. The mean score as ulcer index in each group was calculated as mentioned below.

[2] = tested on: Indomethacin-induced gastric ulcers; experiment: Indomethacin-induced acute gastric ulcers in rats; type: in vivo, Wistar rats; settings: Single oral administration of indomethacin 20 mg/kg, fasted animals
Method: The observed unexpected gastroprotective effect of Chondroitin sulphate is evidenced by test conducted in rats. Wistar rats of either sex were procured from Central Animal House facility, Panacea Biotec Ltd., India. The animals were fasted overnight and those weighing between 150-170 gms at the time of testing were used throughout. […] In brief, overnight fasted animals were administered orally with 20 mg/kg of Indomethacin on the day of experimentation. […] [table]

Structure (SMILES)	Gastric damage (in words) [1]	Gastric damage (in words) [2]
O=C(O)Cc1ccccc1Nc1c(Cl)cccc1Cl [Diclofenac, Diclofenac free acid]	severe gastric damage	–
COc1ccc2c(c1)c(CC(=O)O)c(C)n2C(=O)c1ccc(Cl)cc1 [Indomethacin]	–	severe gastric damage
